Like-named read-outs stand apart in the source and are kept apart here.
Legend:
[1] = system: secondary alcohol dehydrogenase; test: Purified yeast-derived secondary alcohol dehydrogenase activity; assay type: biochemical, Pichia sp. NRRL Y-11,328
Protocol: Large scale cultures of Pichia sp. NRRL Y-11,328 were grown with aeration at 30° C. in a 14-liter New Brunswick f fermentor in a mineral salt medium containing methanol (0.4%, v/v) as the sole carbon source. The cells (200 g., wet weight) were suspended in […] sodium phosphate buffer, pH 7.0, containing 1 mM dithiothreitol (buffer A), and crude extracts were prepared as described previously. To the crude extracts, 18 ml. of protamine sulfate solution [2% solution in 0.1 M tris (hydroxymethyl) aminomethane (tris) base] was added dropwise with continuous stirring. After standing for 30 min., the extracts were centrifuged at 20,000×g. for 60 min. The supernatant solution was fractionated with solid ammonium sulfate. Extracts were brought to 50% of saturation with respect to ammonium sulfate by addition of 313 g. of the salt per liter of extract. Precipitated proteins was removed by centrifugation, and 137 g. of ammonium sulfate was added per liter of the supernatant liquid to bring it to 70% of saturation. Material precipitating between 50 and 70% of saturation was collected by centrifugation and dissolved in buffer A. This preparation was dialyzed overnight against buffer A, and the dialyzed material was applied to a DEAE-cellulose column (5×40 cm) that had been equilibrated with buffer A. The sample was washed with 200 ml. of buffer A and eluted with 2 liters of buffer A that contained NaCl in a linear gradient running from a concentration of 0 to 0.5 M. Fractions of 15 ml. were collected. Fractions containing secondary alcohol dehydrogenase activity were pooled and were termed DEAE-cellulose eluate. The DEAE-cellulose eluate was concentrated by ammonium sulfate fractionation.
Secondary alcohol dehydrogenase activity was measured spectrophotometrically at 340 nm with a NAD^+ as an electron acceptor. The reaction mixture, in a total 3.0 ml., contained 50 mM phosphate buffer, pH 8.0, 5 μmoles NAD^+, crude extracts, and substrate. […] Protein concentration was determined by the method of Lowry et al.
The substrate specificity of the purified secondary alcohol dehydrogenase was examined spectrophotometrically.

[2] = system: P(40) particulate fraction of Methylosinus sp. (CRL-15, NRRL B-11,202); test: Epoxidation of propylene and hydroxylation of methane by P(40) particulate fraction; assay type: biochemical; settings: for Rate of Production Formation: substrate oxidized by P(40) fraction, 30° C.; for Methane-Oxidizing Activity / Propylene-Oxidizing Activity: metal 10^-3 M; for Methane-Oxidizing Activity: control 4.0; for Propylene-Oxidizing Activity: control […]; for Propylene Oxide Produced: substrate competition, P(40) fraction
[3] = system: secondary alcohol dehydrogenase; test: Cofactor requirement of cell-free soluble extracts oxidizing 2-butanol; assay type: biochemical; settings: cell-free systems
Protocol: Catalytic activity was also assayed by fluorescence spectrophotometry.

[4] = system: secondary alcohol dehydrogenase (SADH); test: Purified secondary alcohol dehydrogenase (SADH) activity; assay type: biochemical, Pseudomonas sp. ATCC 21439; settings: each inhibitor 1 mM, measured spectrofluorometrically
Protocol: Secondary alcohol dehydrogenase (SADH) from an obligate methanol utilizer, Pseudomonas sp. ATCC 21439 was purified as follows. […] 0.05 M sodium phosphate buffer, pH 7.0 with 0.5 mM dithiothretol (buffer A) and were disrupted sonically (5×1 min.). The crude extract was separated by centrifugation. The crude extract was heat-treated at 50° C. in a water bath for 10 minutes. The resulting precipitate was removed by centrifugation. To the supernatant solution, 25 ml of protamine sulfate solution (2% solution in 0.1 M Tris base) was added dropwise with continuous stirring. After standing for 30 minutes, the extract was centrifuged. The supernatant solution was fractionated with solid ammonium sulfate. The material precipitating between 30 and 60% saturation was collected and was dialized overnight against buffer A. The The dialized material was applied to a DEAE-cellulose column (3 cm by 35 cm) that had been equilibrated with buffer A. The secondary alcohol dehydrogenase activity was eluted in the void volume. This DEAE-cellulose eluate was concentrated by ammonium sulfate fractionation. Material precipitating between 30 and 50% ammonium sulfate saturation was collected by centrifugation and dialyzed overnight against A. This fraction was further washed and filtered through an Amicon unit with XM 50 membrane. The concentrated fraction (6 ml) inside the Amicon unit was applied to an Affi-Gel Blue column (0.8 cm×18 cm) which had been equilibrated with buffer A for affinity chromatography. The column was washed overnight with buffer A (0.18 ml./min.) and then was eluted with buffer A containing 5 mM NAD. Each 1 ml. fraction was collected.
The purified secondary alcohol dehydrogenase enzyme (SADH) may be used directly for converting C3 -C6 secondary alcohols to the corresponding methyl ketones by the procedures described above; however, a source of NAD^+ must be added to the reaction medium. One can determine the NAD-linked secondary alcohol dehydrogenase activity with a fluorescence spectrophotometer (Perkin Elmer, Model MPF 44A) by following the formation of reduced NAD (Ex 340 nm, Em 460 nm). The assay system (3 ml.) will typically contain: sodium phosphate buffer pH 7.0, 150 μmol; NAD 1.0 μmol; a given amount of enzyme preparation; and 20 μmol secondary alcohol. The reaction is started by the addition of secondary alcohol. One unit of SADH enzyme activity represents the reduction of one nmole NAD per minute.
The effect of metal-chelating agents and thioreagents on the activity of the purified SADH enzyme were studied. […] The possibility of ethanol or n-propanol as an inhibitor was studied.

[5] = system: cell-free particulate fractions derived from the methylotrophic microorganisms; test: Inhibition of conversion of C3-C6 n-alkanes to sec. alcohols by cell-free particulate fractions; assay type: biochemical; settings: oxygen and NADH
Description: The conditions for preparing the cell suspensions or the cell-free particulate fractions from methane-grown methylotroph microorganisms is the same as described above. […] Tables XXV and XXVI show the conversion of C3 -C6 n-alkanes to the corresponding secondary alcohols using cell suspensions and cell-free particulate fractions, respectively, of methane-grown methylotroph microorganisms.

[6] = system: methanol-grown Methylococcus capsulatus CRL M1 (NRRL B-11,219); test: Production of 2-butanone from 2-butanol by cell suspensions, inhibition studies; assay type: cell-based; settings: 1 mM
[7] = examined spectrophotometrically
[8] = purified enzyme, substrate 5.7 (isopropanol) or 6.0 (2-butanol) μmoles

Molecule: CC(O)CO (stereo not drawn) [1,2-propandiol]
- oxidation by the purified enzyme (substrate specificity) [1, 7]: not oxidized

Molecule: C=CCC [1-Butene]
- Rate of Production Formation [2]: 2.18 μ moles/hr/mg of protein

Molecule: C=CCCC [1-Pentene]
- Rate of Production Formation [2]: 0 μ moles/hr/mg of protein

Molecule: O=C1C(Cl)=CC(=Nc2ccc(O)cc2)C=C1Cl [2,6-dichlorophenol indophenol]
- ability to act as electron carrier in place of NAD^+ ([1]; purified enzyme): could not act as electron carrier
- effectiveness as cofactor in place of NAD [3]: not effective

Molecule: CCCCCC(C)O (stereo not drawn) [2-Heptanol]
- oxidation by the purified enzyme (substrate specificity) [1, 7]: not oxidized

Molecule: CCC(C)O (stereo not drawn) [2-butanol]
- oxidation by the purified enzyme (substrate specificity) [1]: catalyzed the oxidation

Molecule: CCCCC(C)O (stereo not drawn) [2-hexanol]
- oxidation by the purified enzyme (substrate specificity) [1, 7]: catalyzed the oxidation

Molecule: CCCCCCC(C)O (stereo not drawn) [2-octanol]
- oxidation by the purified enzyme (substrate specificity) [1, 7]: not oxidized

Molecule: CCCC(C)O (stereo not drawn) [2-pentanol]
- oxidation by the purified enzyme (substrate specificity) [1, 7]: catalyzed the oxidation

Molecule: CC(C)O [2-propanol]
- oxidation by the purified enzyme (substrate specificity) [1, 7]: catalyzed the oxidation
- NAD^+ Reduced [1, 8]: 5.4 µmol
- Product Formed [1, 8]: 5.5 µmol

Molecule: O=C(O)c1cc(SSc2ccc([N+](=O)[O-])c(C(=O)O)c2)ccc1[N+](=O)[O-] [5,5'-dithiobis(2-nitrobenzoic acid)]
- % inhibition of SADH activity [4]: 100%
- % inhibition of SADH activity ([4]; listed as 5,5'-dithiobis (2-nitrobenzoic acid)): inhibited

Molecule: Oc1cccc2cccnc12 [8-Hydroxyquinoline]
- inhibition of the conversion of n-alkanes to sec. alcohols [5]: inhibited

Molecule: C=CC=C [Butadiene]
- Rate of Production Formation [2]: 0.63 μ moles/hr/mg of protein

Molecule: [Co+2] [Co^++]
- % inhibition of SADH activity [4]: 0%

Molecule: O=S(=O)([O-])[O-].[Cu+2] [Cupric Sulfate]
- Methane-Oxidizing Activity [2]: 7.1 μmoles/hr/mg protein
- Propylene-Oxidizing Activity [2]: 9.0 μmoles/hr/mg protein
- inhibition of secondary alcohol dehydrogenase activity ([1]; purified enzyme): inhibited

Molecule: [Cl][Cu] [Cuprous Chloride]
- Methane-Oxidizing Activity [2]: 7.2 μmoles/hr/mg protein
- Propylene-Oxidizing Activity [2]: 9.2 μmoles/hr/mg protein

Molecule: CC [Ethane]
- Rate of Production Formation [2]: 3.2 μ moles/hr/mg of protein

Molecule: C=C [Ethylene]
- Rate of Production Formation [2]: 1.27 μ moles/hr/mg of protein

Molecule: [Cl][Fe]([Cl])[Cl] [Ferric Chloride]
- Methane-Oxidizing Activity [2]: 4.8 μmoles/hr/mg protein
- Propylene-Oxidizing Activity [2]: 5.8 μmoles/hr/mg protein

Molecule: c1c[nH]cn1 [Imidazole]
- inhibition of secondary alcohol dehydrogenase activity ([1]; purified enzyme): strongly inhibited

Molecule: C [Methane]
- Propylene Oxide Produced [2]: 0 μmoles/hr/mg. protein
- Rate of Production Formation [2]: 4.8 μ moles/hr/mg of protein

Molecule: [Mg+2] [Mg^++]
- % inhibition of SADH activity [4]: 0%

Molecule: [Mn+2] [Mn^++]
- % inhibition of SADH activity [4]: 0%

Molecule: CCN1C(=O)C=CC1=O [N-ethylmalemide]
- % inhibition of SADH activity [4]: 6%
- % inhibition of SADH activity ([4]; listed as N-ethylmaleimide): not inhibited

Molecule: NC(=O)C1=CN([C@@H]2O[C@H](COP(=O)(O)OP(=O)(O)OC[C@H]3O[C@@H](n4cnc5c(N)ncnc54)[C@H](OP(=O)(O)O)[C@@H]3O)[C@@H](O)[C@H]2O)C=CC1 [NAD(P)H]
- effectiveness as cofactor in place of NAD [3]: not effective

Molecule: NC(=O)c1ccc[n+]([C@@H]2O[C@H](COP(=O)([O-])OP(=O)(O)OC[C@H]3O[C@@H](n4cnc5c(N)ncnc54)[C@H](OP(=O)(O)O)[C@@H]3O)[C@@H](O)[C@H]2O)c1 [NADP]
- ability to act as electron carrier in place of NAD^+ ([1]; purified enzyme): could not act as electron carrier
- effectiveness as cofactor in place of NAD [3]: not effective

Molecule: C=CC [Propylene]
- Propylene Oxide Produced [2]: 4.3 μmoles/hr/mg. protein
- Rate of Production Formation [2]: 4.1 μ moles/hr/mg of protein
- inhibition of the conversion of n-alkanes to sec. alcohols [5]: inhibited

Molecule: [N-]=[N+]=[N-] [Sodium azide]
- % inhibition of SADH activity [4]: 10%

Molecule: NNC(N)=S [Thiosemicarbazide]
- inhibition of the conversion of n-alkanes to sec. alcohols [5]: inhibited

Molecule: NC(N)=S [Thiourea]
- Inhibition (%) of production of 2-butanone [6]: not inhibited
- inhibition of the conversion of n-alkanes to sec. alcohols [5]: inhibited

Molecule: [Zn+2] [Zn^++]
- % inhibition of SADH activity [4]: 0%

Molecule: CCCCO [butan-1-ol]
- oxidation by the purified enzyme (substrate specificity) [1]: not oxidized

Molecule: CCC(O)CO (stereo not drawn) [butane 1,2-diol]
- oxidation by the purified enzyme (substrate specificity) [1, 7]: not oxidized

Molecule: CC(O)CCO (stereo not drawn) [butane 1,3-diol]
- oxidation by the purified enzyme (substrate specificity) [1, 7]: not oxidized

Molecule: [Cu+2] [cupric]
- % inhibition of SADH activity [4]: 25%

Molecule: CCO [ethanol]
- oxidation by the purified enzyme (substrate specificity) [1]: not oxidized

Molecule: [Fe+3] [ferric]
- % inhibition of SADH activity [4]: 35%

Molecule: [Fe+2] [ferrous]
- % inhibition of SADH activity [4]: 50%

Molecule: Cc1cc2nc3c(=O)[nH]c(=O)nc-3n(C[C@H](O)[C@H](O)[C@H](O)COP(=O)(O)OP(=O)(O)OC[C@H]3O[C@@H](n4cnc5c(N)ncnc54)[C@H](O)[C@@H]3O)c2cc1C [flavin adenine dinucleotide]
- ability to act as electron carrier in place of NAD^+ ([1]; purified enzyme): could not act as electron carrier
- effectiveness as cofactor in place of NAD [3]: not effective

Molecule: N[C@@H](CCC(=O)N[C@@H](CS)C(=O)NCC(=O)O)C(=O)O [glutathione]
- inhibition of secondary alcohol dehydrogenase activity ([1]; purified enzyme): strongly inhibited
- effectiveness as cofactor in place of NAD [3]: not effective

Molecule: N#C[S][Hg][S]C#N [mercuric thiocyanate]
- inhibition of secondary alcohol dehydrogenase activity ([1]; purified enzyme): inhibited

Molecule: CO [methanol]
- oxidation by the purified enzyme (substrate specificity) [1, 7]: not oxidized

Molecule: [Ni+2] [nickel]
- % inhibition of SADH activity [4]: 20%

Molecule: O=C(O)c1cc[c]([Hg+])cc1.[OH-] [p-hydroxymercuribenzoate]
- % inhibition of SADH activity [4]: 100%
- inhibition of secondary alcohol dehydrogenase activity ([1]; purified enzyme): strongly inhibited

Molecule: CCCCCO [pentan-1-ol]
- oxidation by the purified enzyme (substrate specificity) [1, 7]: not oxidized

Molecule: C[n+]1c2ccccc2nc2ccccc21 [phenazine methosulfate]
- ability to act as electron carrier in place of NAD^+ ([1]; purified enzyme): could not act as electron carrier
- effectiveness as cofactor in place of NAD [3]: not effective

Molecule: CCCO [propan-1-ol]
- oxidation by the purified enzyme (substrate specificity) [1]: not oxidized

Molecule: O=[N+]([O-])[O-].[Ag+] [silver nitrate]
- inhibition of secondary alcohol dehydrogenase activity ([1]; purified enzyme): inhibited

Molecule: c1ccc(-c2ccccn2)nc1 [α,α-Bipyridyl]
- Inhibition (%) of production of 2-butanone [6]: inhibited
- % inhibition of SADH activity [4]: 70%
- inhibition of the conversion of n-alkanes to sec. alcohols [5]: inhibited

Molecule: Ferrous Sulfate
- Methane-Oxidizing Activity [2]: 4.8 μmoles/hr/mg protein
- Propylene-Oxidizing Activity [2]: 5.9 μmoles/hr/mg protein

Molecule: cytochrome c
- ability to act as electron carrier in place of NAD^+ ([1]; purified enzyme): could not act as electron carrier
